{"source": "patent US12589085B2", "about": "“Use of diaminoguanidine derivative and feed composition thereof in preparation of veterinary drug” (priority 2019, dated 2026)", "key": {"[1]": {"tested_on": "sows suffering from endometritis", "experiment": "Efficacy on endometritis in postpartum sows", "format": "in vivo, pig", "details": "uterine perfusion 10 mg/kg once a day for 7 days; 30 sows", "method": "Sows suffering from endometritis in 5 different pig farms were selected, 30 cases in each farm, 150 cases in total, were randomly divided into groups, and a non-treatment control was set up, and the sick pigs in each experimental group were perfused into the uterus. Agents, the main components of the uterine perfusion for treatment groups 1-4 were Compound 1, Compound 2, Compound 3, and Compound 4, respectively, at a dose of 10 mg/kg, and the control group was given an equal volume of normal saline. The frequency of administration is once a day for 7 consecutive days."}, "[2]": {"tested_on": "TA97", "experiment": "Salmonella typhimurium reverse mutation assay, plate incorporation, TA97", "details": "positive control, TA97 −S9, 50 μg/100 μL dish", "method": "(§1) Test strains: A set of standard test strains of TA97, TA98, TA100 and TA102 were provided by the Jiangsu Provincial Center for Disease Control and Prevention, and stored at −80° C. The test bacteria were cultured in a 37° C. water bath with shaking for 24 hours and stored at 4° C.\n(§2) Enrichment culture: The main plate or the frozen-preserved strain culture was inoculated into nutrient broth, and cultivated for 10 hours at 37° C. with shaking (100 times/min). The strain culture should be more than 1˜2×10^9 viable bacteria per milliliter.\n(§3) According to the physicochemical properties of the test article, the Compound 2 was prepared before test: 0.1 g of Compound 2 white powder was under UV sterilization for 2 h before test, and dissolved in 10 mL of dimethyl sulfoxide (DMSO), and then diluted to the desired concentration for the use (fresh preparation). […]\n(§4) Preparation of test agent solution: 0.1 mL of test agent solution was added to each dish, and the highest concentration and volume of test agent solution to be prepared were determined according to the set maximum test dose of 10 mg/mL. The amount of the test agent to be weighed was calculated when the solution was prepared. […]\n(§5) Judgment and evaluation of results: The results of each test were sorted out, and the number of strains turned into colonies was expressed as (x±SD)/dish. […]"}, "[3]": {"tested_on": "TA98", "experiment": "Salmonella typhimurium reverse mutation assay, plate incorporation, TA98", "details": "positive control, TA98 −S9, 50 μg/100 μL dish", "method": "as §1, §2, §3, §4, §5"}, "[4]": {"tested_on": "sperm", "details": "oral once a day 5 days; for Total number of abnormal sperm / abnormal sperm: Amorphous / abnormal sperm: Banana shape / abnormal sperm: Double head / abnormal sperm: Double tail / abnormal sperm: Fat head / abnormal sperm: Fold tail / abnormal sperm: No hook: Day 35, 10000 sperm; for Number of Abnormal sperm (x ± SD) / Sperm deformity: Day 35, n = 10", "method": "Experimental animals: 60 clean-grade healthy male ICR mice having the average weight of 18-20 g, purchased from the Comparative Medicine Center of Yangzhou University.\nReagents: Test agent, Compound 2, provided by Guangzhou Insighter Biotechnology Co., Ltd., was prepared into a suspension of the required concentration with 1.0% sodium carboxymethyl cellulose before use; the mutagenic positive control article of cyclophosphamide with the content of 99.00%; other reagents include sodium chloride, methanol, and eosin, all of analytical grade; self-prepared physiological saline; self-prepared eosin aqueous solution (2%).\nThe test article, Compound 2 was diluted with 1.0% sodium carboxymethyl cellulose as a solvent, and it was given by oral in different concentrations and the same volume. There is also a positive control and a negative (solvent) control. The cyclophosphamide was selected as the positive control (40 mg/kg).\nGrouping of experimental animals: 60 healthy male mice were individually weighed, labeled and numbered, and they were divided into 5 groups with 12 mice in each group using a completely random method. It was ensured that 10 animals in each group survive for sampling and film making after administration.\nAdministration: The administration method is carried out according to GB15193.7-2003. The test group, the negative control and the positive control are all given the test article by oral once a day for 5 consecutive days. The weight of the mouse for each administration was weighed, and the volume of the test article that each mouse should administer was calculated according to the requirements of the mouse 0.2 mL/10 g b.w.\nSampling and sample preparation: The mice were sacrificed by cervical dislocation on the Day 35 after the first administration, and sampling and film making were performed. 10 mice were sampled in each dose group. The abdominal cavity was cut, the epididymis on both sides were separated and extracted, and put in a petri dish containing 2 mL of normal saline; The mice were longitudinally cut with ophthalmological scissors for 2 times, the normal saline in it was pipetted with a straw for several times, and let stand for 3 min; the tissue fragments were filtered with a 4-layer of lens cleaning paper, 1 drop of the filtrate was drawn onto the glass slide, the slide was pushed with 4 slides per mouse; the slide in the air dried naturally, and fixed with methanol for 10 minutes, and dried; stained with 2% eosin for 1 h, the dye solution was gently washed off with water, and it was dried naturally before microscopic examination.\nData collation and analysis: The number of normal sperm, the number of abnormal sperm and the number of various types of abnormal sperm were read and counted in each dose group of mice. The sperm abnormality rate (%) of mice in each dose group and the percentage (%) of various types of abnormal sperm were calculated, and the standard deviation of the sperm abnormality rate of mice was also calculated in each dose group. Calculation as follows:\nThe sperm abnormality rate of mice in each dose group was statistically compared with the sperm abnormality rate of mice in the negative (solvent) control. The experimental data was processed by SPSS 11.0 statistical software, and the analysis results were expressed as x±SD, and the incidence of sperm abnormalities was statistically processed according to the X^2 (α=0.05).\nIf the dose of the test group has caused the animal to die, while the sperm abnormality has not increased, the result can be judged to be negative."}, "[5]": {"tested_on": "TA102", "experiment": "Salmonella typhimurium reverse mutation assay, plate incorporation, TA102", "details": "positive control, TA102 −S9, 1.0 μL/100 μL dish", "method": "as §1, §2, §3, §4, §5"}}, "note": "Like-named read-outs stand apart in the source and are kept apart here."}
{"molecule": "N=C(N/N=C/c1ccc([N+](=O)[O-])cc1)N/N=C/c1ccc([N+](=O)[O-])cc1", "note": "[Compound 1]", "values": [{"measurement": "Cure rate", "setting": "[1]", "value": 93.3, "unit": "%"}, {"measurement": "Treatment effects: sows cured", "setting": "[1]", "value": "27 sows were cured,"}, {"measurement": "Treatment effects: sows improved in symptoms", "setting": "[1]", "value": 1, "unit": "sow improved sows"}]}
{"molecule": "COC(=O)c1ccc(/C=N/NC(=N)N/N=C/c2ccc(C(=O)OC)cc2)cc1", "note": "[Compound 4]", "values": [{"measurement": "Cure rate", "setting": "[1]", "value": 100, "unit": "%"}, {"measurement": "Treatment effects: sows cured", "setting": "[1]", "value": "25 sows were cured,"}, {"measurement": "Treatment effects: sows improved in symptoms", "setting": "[1]", "value": 5, "unit": "sows improved"}]}
{"molecule": "N=C(N/N=C/c1ccc(OCc2ccccc2)cc1)N/N=C/c1ccc(OCc2ccccc2)cc1", "note": "[Compound 3]", "values": [{"measurement": "Cure rate", "setting": "[1]", "value": 90.0, "unit": "%"}, {"measurement": "Treatment effects: sows cured", "setting": "[1]", "value": "25 sows were cured,"}, {"measurement": "Treatment effects: sows improved in symptoms", "setting": "[1]", "value": 2, "unit": "sows improved"}]}
{"molecule": "CN(C)c1ccc(N=NS(=O)(=O)[O-])cc1.[Na+]", "note": "[Dixon, reference compound]", "values": [{"measurement": "reverting colonies per dish (x ± SD)", "setting": "[2]; First", "value": ">2000"}, {"measurement": "reverting colonies per dish (x ± SD)", "setting": "[2]; Second", "value": ">2000"}, {"measurement": "reverting colonies per dish (x ± SD)", "setting": "[3]; First", "value": "932.00 ± 57.17"}, {"measurement": "reverting colonies per dish (x ± SD)", "setting": "[3]; Second", "value": ">2000"}]}
{"molecule": "isopropoxyphenylguanidine [Compound 2]", "values": [{"measurement": "Total number of abnormal sperm", "setting": "[4]; high 500 mg/kg", "value": 224}, {"measurement": "abnormal sperm: Amorphous", "setting": "[4]; high 500 mg/kg", "value": 106}, {"measurement": "abnormal sperm: Banana shape", "setting": "[4]; high 500 mg/kg", "value": 22}, {"measurement": "abnormal sperm: Double head", "setting": "[4]; high 500 mg/kg", "value": 5}, {"measurement": "abnormal sperm: Double tail", "setting": "[4]; high 500 mg/kg", "value": 9}, {"measurement": "abnormal sperm: Fat head", "setting": "[4]; high 500 mg/kg", "value": 10}, {"measurement": "abnormal sperm: Fold tail", "setting": "[4]; high 500 mg/kg", "value": 9}, {"measurement": "abnormal sperm: No hook", "setting": "[4]; high 500 mg/kg", "value": 63}, {"measurement": "Number of Abnormal sperm (x ± SD)", "setting": "[4]; high 500 mg/kg", "value": "22.40 ± 1.84"}, {"measurement": "Sperm deformity", "setting": "[4]; high 500 mg/kg", "value": "2.17 ± 0.16", "unit": "%"}, {"measurement": "Total number of abnormal sperm", "setting": "[4]; low 125 mg/kg", "value": 223}, {"measurement": "abnormal sperm: Amorphous", "setting": "[4]; low 125 mg/kg", "value": 118}, {"measurement": "abnormal sperm: Banana shape", "setting": "[4]; low 125 mg/kg", "value": 16}, {"measurement": "abnormal sperm: Double head", "setting": "[4]; low 125 mg/kg", "value": 4}, {"measurement": "abnormal sperm: Double tail", "setting": "[4]; low 125 mg/kg", "value": 6}, {"measurement": "abnormal sperm: Fat head", "setting": "[4]; low 125 mg/kg", "value": 5}, {"measurement": "abnormal sperm: Fold tail", "setting": "[4]; low 125 mg/kg", "value": 5}, {"measurement": "abnormal sperm: No hook", "setting": "[4]; low 125 mg/kg", "value": 69}, {"measurement": "Number of Abnormal sperm (x ± SD)", "setting": "[4]; low 125 mg/kg", "value": "22.30 ± 1.70"}, {"measurement": "Sperm deformity", "setting": "[4]; low 125 mg/kg", "value": "2.15 ± 0.16", "unit": "%"}, {"measurement": "Total number of abnormal sperm", "setting": "[4]; medium 250 mg/kg", "value": 221}, {"measurement": "abnormal sperm: Amorphous", "setting": "[4]; medium 250 mg/kg", "value": 111}, {"measurement": "abnormal sperm: Banana shape", "setting": "[4]; medium 250 mg/kg", "value": 21}, {"measurement": "abnormal sperm: Double head", "setting": "[4]; medium 250 mg/kg", "value": 5}, {"measurement": "abnormal sperm: Double tail", "setting": "[4]; medium 250 mg/kg", "value": 7}, {"measurement": "abnormal sperm: Fat head", "setting": "[4]; medium 250 mg/kg", "value": 7}, {"measurement": "abnormal sperm: Fold tail", "setting": "[4]; medium 250 mg/kg", "value": 5}, {"measurement": "abnormal sperm: No hook", "setting": "[4]; medium 250 mg/kg", "value": 65}, {"measurement": "Number of Abnormal sperm (x ± SD)", "setting": "[4]; medium 250 mg/kg", "value": "22.10 ± 1.37"}, {"measurement": "Sperm deformity", "setting": "[4]; medium 250 mg/kg", "value": "2.14 ± 0.14", "unit": "%"}]}
{"molecule": "COS(C)(=O)=O", "note": "[Methyl Methanesulfonate, methyl methanesulfonate, reference compound]", "values": [{"measurement": "reverting colonies per dish (x ± SD)", "setting": "[5]; First", "value": "392.67 ± 12.86"}, {"measurement": "reverting colonies per dish (x ± SD)", "setting": "[5]; Second", "value": ">2000"}]}
